“And” between values parts separate entries of the source, which are not always exact repeats. Equal values may be shown once. “Also recorded” adds a separate entry of the source. Read-outs that look alike come from different tables or passages of the source. Square brackets hold non-standard residues; d marks the D form. Ends that are not written are not given here. Peptide text beside a SMILES is read from it. Dmt = Cc1cc(O)cc(C)c1C[C@H](N)C(=O)O

In one series the target is MOR (Homo sapiens, UniProt P35372). In words: Binding tests (Ki) MOR.
For another series, the target named is DOR (Homo sapiens, UniProt P41143). In words: Binding tests (Ki) DOR.
The next series has as its target KOR (Homo sapiens, UniProt P41145). The series can be described thus: Binding tests (Ki) KOR.
The nature of series [1]: Stability and degradability of biogels in human plasma (Example 8). Format: in vitro ADME. Particulars: human plasma, 37° C.; for half-life at 14 μM: human, in solution. As for the experimental part:
After centrifugation at 14 000 rpm for 15 minutes, 100 μL supernatant was diluted with 100 μL milliQ water in the injection vial. Injection samples were vortexed for 5 seconds and were analyzed by HPLC. […] Calculations were performed using Microsoft® Office Professional 2010 Excel.

A short description of series [2]: In vivo monitoring of cargo release with fluorescence imaging. The arrangement: species or system athymic nude mice. As for the experimental part:
Fluorescent cargo—IRDye800CW N-hydroxysuccinimide (NHS) ester (Li-COR Biosciences) was solubilized at 4 mg/l in PBS. The solution was stirred for 2 h in order to hydrolyze the NHS ester, resulting in compound 2 as fluorescent cargo (MW=1068 g/mol). The dye solution was either used as such, or incorporated within the hydrogel as described below.
Animal study protocols were approved by the Ethical Committee for Animal Experiments of the Vrije Universiteit Brussel (also for section 2.5.). After subcutaneous injection of 150 μl of hydrogel containing 0.5 nmol of IRDye 800CW in athymic nude mice (Charles River, n=3 per group), fluorescence reflectance images of the posterior side of the mice were acquired over 24 h using the Fluobeam800 (Fluoptics) under 2.5% isoflurane anesthesia (Iso-Vet, Eurovet NV/SA). Fluorescence images were overlaid with white light images for anatomical localization. Regions of interest (ROI) were drawn around the site of injection and total fluorescence signal was measured within these ROIs using ImageJ software.

A short description of series [3]: Peptide gelation (tilted tube / inverted vial test, minimum gelation concentration). Format: physicochemical. The procedure:
The peptide gelation occurred by dissolving the TFA salt of the hexapeptide (2 mg) in 100 μL of PBS solution (pH 7.4) or physiological saline solution (0.9% NaCl).
Both peptides 2 and 4 (Table 1) gave a transparent gel in the same conditions (PBS 10 mM at pH 7.4 with a minimum gelation concentration of 24 mM; 2% w/v). To evaluate the mechanical properties of these hydrogels in a more quantitative manner, rheological experiments were performed. The viscoelastic properties of the peptide hydrogels were measured by dynamic rheometry at 37° C. This technique allowed to measure the storage modulus G′ (corresponding to the material's stiffness or rigidity), loss modulus G″ (corresponding to the viscous properties of the material) and loss factor tan (o) (ratio of G″ over G′). According to the Winter-Chambon criterion, a material reaches gelation in rheological terms if the phase angle o gets frequency-independent (F. Chambon et al., 1987 and H. Winter et al., 1987).
The peptide gelation occurred by dissolving the TFA salt of the peptide in 100 μL of PBS solution or physiological saline solution (0.9% NaCl) (pH 7.4).
The peptide gelation occurs by dissolving the TFA salt of the hydrogelator (1 or 2 mg) in 100 μL of aqueous media, PBS solution (pH 7.4) or physiological saline solution (0.9% NaCl). After successive vortexing and sonication, the gel is left to rest overnight at room temperature.
The hydrogelation was realized under physiologically relevant conditions, namely via the addition of phosphate-buffered saline (PBS) or sterile physiological saline solution (0.9% NaCl). The needed amount of hydrogelator was weighed in an Eppendorf® and solubilized by the addition of the above solutions. After vortex and sonication steps, the resulting solution was left at room temperature until gelation occurred. The gelation was qualitatively verified by the inverted vial test (if no gravitational flow was visible the gelation was considered successful). It can be noticed that all peptide hydrogelators depicted formed gels in PBS and saline solution at a concentration of 1 to 2% w/v.

A short description of a further series: pH of the hydrogel. In kind it is physicochemical.
Series [4] is described as follows: in vitro. Particulars: human, plasma, 37° C., in solution.
Experimental: Human plasma was obtained from the Belgian Red Cross (Vlaams-Brabant, Leuven). […] Frozen (−20° C.) human plasma samples were thawed and thermostated to 37+2° C. Dissolution of the lyophilized peptide and consecutive dilutions were performed in water. […] On every time point 100 μL spiked plasma was transferred to a 500 μL Eppendorf tube and a protein crash was performed using 300 μL methanol+0.1% TFA (4° C.). Suspensions were vortexed for 15 seconds and placed at 4° C. for 30 to 45 minutes. After centrifugation at 14000 rpm for 20 minutes, 100 μL supernatant was diluted with 100 μL water in the injection vial. Injection samples were vortexed for 5 seconds and placed in the autosampler. […] Concentrations were calculated by use of the calibration curve and transferred to a semi-log chart presenting the log concentrations as a function of time. The optimum curve was used to calculate the peptide-half life. Calculations were performed using Microsoft® Office Professional 2010 Excel.
A short description of series [5]: Dynamic rheometry of hydrogels (storage modulus G′). In kind it is physicochemical. The note with it: 2% w/v in PBS, 37° C., value at 1 Hz.
Experimental: Dynamic rheometry measurements were performed on an AR-G2 rheometer (TA Instruments) equipped with electrically heated plates and a 10 mm-diameter aluminium parallel plate-plate geometry. Viscoelastic properties were measured by oscillatory frequency sweeps at 37° C. in the range between 0.01 and 10 Hz, using a controlled strain of 0.05%. Hydrogel samples were made 12 h in advance. A ring-shaped reservoir filled with a saturated NH4Cl solution was used as a solvent trap.
The nature of series [6]: TEM / cryo-TEM fibre morphology of hydrogels. Format: physicochemical. As for the experimental part: Formvar carbon-coated 400-mesh copper grids (Agar Scientific, Stansted, United Kingdom) were treated with plasma using an ELMO Glow discharge system to clean the grid surface and to render the carbon surface hydrophilic. Hydrogel samples were prepared 12 h in advance as described above. Small aliquots of sample (5 μL) were pipetted onto the carbon grids for adsorption. After 30 s, excess of sample was removed by using a Whatman 541 filter paper. The loaded grids were stained during 10 s with 1% uranyl formate after which the grids were air-dried. Samples were analysed using a JEOL JEM-1400 transmission electron microscope, operating at accelerating voltage of 120 kV. Images were recorded on a CMOS TemCam-F416 camera and accessory software of TVIPS.
200-mesh copper grids coated with perforated carbon film (Lacey carbon film: ProSci-Tech Old, Australia) were used and were glow discharged in nitrogen for 5 s immediately prior to use. Hydrogel samples were prepared 12 h in advance as described above. Small aliquots of sample (4 μL) were pipetted onto the carbon grids for adsorption. After 30 s, excess of sample was removed by using a Whatman 541 filter paper. The grid was then plunged into liquid ethane cooled by liquid nitrogen. Frozen grids were stored in liquid nitrogen until required. Samples were analysed using a Gatan 626 cryoholder and Tecnai 12 Transmission electron microscope, operating at accelerating voltage of 120 kV. Images were recorded using an FEI Eagle 4k×4k CCD camera.

Series [7] deals with L929 (mouse fibroblast) cells. In words: Live/Dead cell viability assay on hydrogels (Example 5). In kind it is cell-based. Particulars: 24 h on hydrogel. The procedure: L929 (mouse fibroblast) cells were obtained from ATCC® and maintained in Gibco®, MEM with GlutaMAX supplemented with 10% FBS (SAFC, Sigma), 1% Anti-Anti (100×, Gibco®) and 1% NEAA (100×, Gibco®). Cells were maintained on tissue culture treated polystyrene (TCPS) plates at 37° C. in a humified atmosphere containing 5% CO2 and 95% air. Cells were trypsinized, harvested and counted using a hemocytometer. The resulting cell suspension was diluted in Gibco® solution before addition to the hydrogels. For ease of handling and to produce homogeneous clear hydrogels, 100 μL of peptide hydrogels were prepared (in corresponding gelation conditions, see above) in Eppendorf tubes (0.5 ml) and transported using a 21G syringe to 96-well plates after simultaneously heating (60° C.) and mixing (900 rpm) using an Eppendorf ThermoMixer®. The hydrogels were left to set overnight in the wells at room temperature and were subsequently washed twice with 200 μL of Anti-Anti (100×, Gibco®) solution, 2 h each. After washing, media was removed and cells were seeded evenly over hydrogels. Cells were plated in duplicate on all hydrogels and control wells. Viability of cells on hydrogels was determined using the traditional Live/dead cell viability assay (Invitrogen) after culture durations of 24 h.
Plates were incubated in 5% CO2 at 37° C. for 1 day to allow cell attachment and spreading to occur. […]

The subject of the next series is L929 mouse fibroblasts. The series can be described thus: Cytotoxicity, Live/Dead viability staining on hydrogels (Example 9). In kind it is cell-based. The procedure:
Hydrogels were prepared at 1, 2 or 3 mg/100 μL as duplicate in a 96-well ULA plate (Cat #CORN3474; Corning-Costar, 60 μL each well). The gels were photographed and pre-equilibrated before seeding with cells. For equilibration, gels were incubated at room temperature in 40 μL of L929 culture medium with double-strength Anti-Anti (Cat #15240062, GIBCO) for 2 h prior to seeding with cells. The equilibration medium was removed before cell seeding and retained to examine if the gels dissolved (even partially) or disintegrated into the culture medium. Next, […] mouse fibroblasts (ATCC) were seeded onto hydrogels at a concentration of 200,000 cells/ml in a volume of 50 μl. The cells were photographed immediately after seeding, observed by microscopy 2 h post-seeding and then observed and photographed at 24 h post-seeding. The cell culture medium consisted of MEM+GlutaMAX I (Cat #41090-036; GIBCO); 10% foetal bovine serum (Cat #12003C; SAFC, Sigma), 2× Anti-Anti (Cat #[…]) and 1× Non-Essential Amino Acids (Cat #41090-036; GIBCO).
Bright field microscopy was performed through use of a IX71 inverted microscope with NIS-Elements F3.0 imaging software (Olympus). The TE2000 Eclipse fluorescent microscope with NIS-Elements AR3.2 software (Nikon) was used for fluorescence imaging microscopy. Automated cell counting was performed on the NC-200 NucleoCounter using proprietary lysis and stabilising reagents and cassettes (ChemoMetec).
The viability and distribution of cells was assessed using a LIVE/DEAD Viability/Cytotoxicity Kit *for Mammalian cells* (Live-Dead Kit), (Cat #13224; Molecular Probes). Briefly, a working solution of live/dead solution was made as per manufacturer's instructions by adding 1.25 μl of Calcein AM (solution A) to 2.5 ml of pre-warmed PBS. The solution was thoroughly mixed by vortex and 2.5 μl of Ethidium homodimer (solution B), was added before vortexing a second time to mix. Excess medium was removed and the gels rinsed with 20 μl of warm PBS before a 40 μl of Live/Dead kit working solution was added to each well. The plate was incubated in a 37° C. cell culture incubator for 20 min before viewing using a fluorescent microscope. Green fluorescence was emitted from the cytoplasm of viable cells (excitation/emission ˜495 nm/˜515 nm) while dead cell nuclei fluoresced red (excitation/emission ˜495/˜635 nm) allowing a distinction to be made between viable and dead cells.

The conditions of series [8]: for Hydrogel volume remaining: 2 w/v% in PBS, 150 μL s.c.
Experimental: ^111/n-labeling of DOTA-peptide—^111InCb (5 μl,±4 MBq) (Mallinckrodt) was added to 200 μl 1 mg/ml DOTA-peptide 6, dissolved in 0.2 M ammonium acetate buffer (NH4OAc) pH 5, and incubated for 30 min at 50° C. Radiochemical purity (>95%) was verified by ITIC using 0.1 M citrate buffer pH 5 as mobile phase. 200 μl of ^111In-peptide 6 was diluted up to 1 ml with phosphate buffered saline (PBS, 10 mM) and incorporated within the hydrogel as described below.
After sequential vortexing and sonication, hydrogels (2 w/v¾) were formed and let to rest overnight.
C57Bl/6J mice were purchased by Charles River (n=3 per group) and all experimental procedures were performed under 2.5% isoflurane anesthesia (Iso-vet). 150 μL (0.518±0.037 MBq) of the ^111In-labeled hydrogel (stability experiment) or 150 μL (1.702±0.777 MBq) of hydrogels loaded with ^111In-labeled cargos (cargo release experiment) were injected subcutaneously on the hind limb. For comparison, 150 μL of ^111In-labeled cargos not loaded into a hydrogel were also subcutaneously injected. Immediately after injection, at 1 h30, 3 h, 6 h, 12 h, 24 h, 48 h and 72 h, animals were subjected to a SPECT/CT scan. SPECT images were acquired on an e.cam^180 system (Siemens) equipped with two triple-pinhole collimators designed for ^111In (1.5 mm pinhole opening, 250 mm focal length, 47 mm radius of rotation). Images were acquired over 360° in 64 projections of 30 s into a 128×128 matrix and reconstructed using an iterative algorithm correcting for radioactive decay and allowing automatic fusion with CT images (based on six 57Co fiducial markers). […]
Maximum intensity projections (MIPs) were generated in Osirix Medical Software. Images were quantified using the software AMIDE (sourceforge.net). For the stability experiments, the size of the gel was determined by automatic delineation, for the cargo release experiments, the total radioactivity within a ROI drawn on the hind limb was calculated. Results were expressed as percentage of injected dose remaining in function of time. […]
Series [9] in a line: in vitro. Particulars: human, plasma.
Experimental: Human plasma was obtained from the Belgian Red Cross (Vlaams-Brabant, Leuven). Prior to the stability test, selectivity, stability of the compound in the injection solvent, linearity, accuracy and precision of the method were investigated. Frozen (−20° C.) human plasma samples were thawed and thermostated to 37±2° C. Dissolution of the lyophilized peptide and consecutive dilutions were performed in water. The resulting aqueous solutions of each peptide individually was spiked in human plasma (10:90 v/v) with final plasma concentrations of 9 μM.
On every time point 100 μL spiked plasma was transferred to a 500 μL Eppendorf tube and a protein crash was performed using the corresponding precipitation solvent (4° C.). Suspensions were vortexed for 15 s and placed at 4° C. for 30 to 45 min. After centrifugation at 18 625 g for 20 min, 100 μL supernatant was diluted with 100 μL water in the injection vial.
Injection samples were vortexed for 5 sand placed in the autosampler. […] Concentrations were calculated by use of the calibration curve and transferred to a semi-log chart presenting the log concentrations as a function of time. The optimum curve was used to calculate the peptide half-life. Calculations were performed using Microsoft® Office Professional 2010 Excel.

KOR, sequence (P41145 whole entry): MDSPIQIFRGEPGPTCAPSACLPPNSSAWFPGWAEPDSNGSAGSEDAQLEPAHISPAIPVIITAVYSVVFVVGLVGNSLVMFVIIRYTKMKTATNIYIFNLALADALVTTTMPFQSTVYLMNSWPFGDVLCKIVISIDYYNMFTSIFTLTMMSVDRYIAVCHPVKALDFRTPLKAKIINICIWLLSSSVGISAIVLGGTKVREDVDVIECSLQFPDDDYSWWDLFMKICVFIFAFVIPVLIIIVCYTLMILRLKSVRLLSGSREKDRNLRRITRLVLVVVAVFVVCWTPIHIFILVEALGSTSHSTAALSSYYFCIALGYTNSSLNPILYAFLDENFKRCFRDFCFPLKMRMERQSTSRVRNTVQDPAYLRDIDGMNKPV
MOR, sequence (P35372 whole entry): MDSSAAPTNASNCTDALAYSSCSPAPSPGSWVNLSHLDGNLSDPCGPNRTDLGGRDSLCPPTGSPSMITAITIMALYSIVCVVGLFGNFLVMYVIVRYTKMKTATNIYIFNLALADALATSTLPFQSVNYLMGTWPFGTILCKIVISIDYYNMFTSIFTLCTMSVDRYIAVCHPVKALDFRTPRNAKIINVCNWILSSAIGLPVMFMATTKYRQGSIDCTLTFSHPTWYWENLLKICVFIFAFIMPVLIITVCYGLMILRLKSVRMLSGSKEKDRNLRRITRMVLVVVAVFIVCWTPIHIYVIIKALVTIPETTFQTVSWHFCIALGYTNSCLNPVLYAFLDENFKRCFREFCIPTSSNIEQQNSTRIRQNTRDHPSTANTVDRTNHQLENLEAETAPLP
DOR, sequence (P41143 whole entry): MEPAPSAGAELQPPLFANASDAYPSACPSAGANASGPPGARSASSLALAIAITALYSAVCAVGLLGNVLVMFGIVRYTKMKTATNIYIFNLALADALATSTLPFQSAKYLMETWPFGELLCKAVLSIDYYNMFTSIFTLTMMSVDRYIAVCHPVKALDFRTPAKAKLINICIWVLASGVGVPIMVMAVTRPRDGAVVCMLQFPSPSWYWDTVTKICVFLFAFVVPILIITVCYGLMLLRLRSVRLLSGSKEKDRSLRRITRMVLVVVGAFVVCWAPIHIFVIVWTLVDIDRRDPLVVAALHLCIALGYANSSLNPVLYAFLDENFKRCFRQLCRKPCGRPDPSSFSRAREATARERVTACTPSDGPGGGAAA

`Cc1cc(O)cc(C)c1C[C@H](N)C(=O)N[C@H](CCCCN)C(=O)N[C@@H](Cc1ccccc1)C(=O)N[C@@H](Cc1ccccc1)C(=O)N[C@@H](CCC(=O)O)C(=O)N[C@@H](Cc1ccccc1)C(=O)N[C@@H](CCC(N)=O)C(=O)N[C@@H](Cc1ccccc1)C(=O)N[C@@H](CCCCN)C(N)=O` [CM-53, Dmt-DLys-Phe-Phe-Glu-Phe*-Gln-Phe-Lys-NH2] (H-[Dmt][dK]FFEFQFK-NH2; N-terminus assumed) gave a Ki on MOR of 7.4 nM. At DOR, this compound came in with an inhibitory constant (Ki) of 24 nM. Also, on KOR, the Ki turned out to be 337 nM. In series [1], the “Time at which degradation of the heptapeptide into the N-terminal pentapeptide started” value came to 7.5 min, the “Time at which degradation of the pentapeptide into tripeptide was observed” value came out at 60 min, the “Time of appearance of the heptapeptide (loss of Phe-Lys-NH2)” value is 2.5 min and the half-life at 14 μM was about 18 min.
IRDye 800CW carboxylate: the “Time the fluorescent signal remains visible” value in series [2] (dye co-formulated within hydrogel of peptide 2 (2 w/v%), s.c.) is listed as “more than 24 h”. For the same compound, the “Fluorescent signal at the injection site” value in series [2] (dye injected s.c. as solution) is reported as “reduces drastically within approximately two hours”.
With “FEFQFK [peptide 1, H-Phe-Glu-Phe*-Gln-Phe-Lys-OH]”, the Minimum gelation concentration in [3] (in mQ:PBS 50:50) is given as 1 (in mQ:PBS w/v %. In addition, the “pH of the gel” value in “pH of the hydrogel” (listed as MBG-1) was < 4 and 3.49. This compound also showed a half-life at 72 μM in the series “in vitro [4]” of about 2 min.
As for “FEFQFK-NH2 [peptide 2, H-Phe-Glu-Phe*-Gln-Phe-Lys-NH2]”, in series [3] (25G needle used for s.c. injections), the Re-gelation after injection entry is “immediate re-gelation after injection through a 25G needle”. Moreover, the Minimum gelation concentration was 24 mM in series [3] (PBS 10 mM, pH 7.4) and 2 % w/v in series [3] (PBS 10 mM, pH 7.4 (text, Examples 1-2)). Moreover, the “Minimum gelation concentration (w/v % in PBS)” value in [3] (in PBS, '/' = no gel) was 2 w/v %. Further, the “pH of the gel” value in the series “pH of the hydrogel” is on record as 4.02. Besides, the “Storage modulus G′” value in [5] was “ca. 8000 Pa”. In addition, the Fibre thickness entry in series [6] (TEM, Example 2) is listed as “ca. 10 nm”. Also, in series [6] (cryoTEM and negative staining, Example 9), the Fibre diameter is listed as about 5 nm. Besides, the “Cytotoxicity (Live/Dead cell viability, qualitative)” value in [7] was “the majority of cells were green fluorescent and thus, were viable; also recorded: noncytotoxic”. Further, the Cytotoxicity in vitro result with L929 mouse fibroblasts is listed as “showed no cytotoxicity in vitro”. Besides, the Hydrogel volume remaining in series [8] (12 h) is reported as 24%; in [8] (72 h post-injection) it was 9%. Also, the “Time within which most degradation occurred” value in series [8] (after subcutaneous injection of the hydrogel) is at most 12 h. This compound gave a half-life at 72 μM in the series “in vitro [4]” of about 15 min. In “in vitro [9]”, this compound displayed a half-life at 9 μM of about 15 min.
Turning to `Cc1cc(O)cc(C)c1C[C@H](N)C(=O)N1CCC[C@H]1C(=O)N[C@@H](Cc1c[nH]c2ccccc12)C(=O)N[C@@H](Cc1ccccc1)C(=O)N[C@@H](CCC(N)=O)C(=O)N[C@@H](Cc1ccccc1)C(=O)N[C@@H](CCC(N)=O)C(=O)N[C@@H](Cc1ccccc1)C(=O)N[C@@H](CCCCN)C(N)=O` [CM-58, Dmt-Pro-Trp-Phe-Gln-Phe*-Gln-Phe-Lys-NH2] (H-[Dmt]PWFQFQFK-NH2; N-terminus assumed), the figures for the Ki on MOR, at DOR and at KOR were 7.5 nM, 15 nM and 120 nM, respectively. Besides, in series [1], the half-life at 14 μM is about 12 min.

The values above are taken from US12383628B2 (priority 2016, dated 2025).
